Results from ChEMBL document CHEMBL1154198, “Chemical genetics of Plasmodium falciparum” (Nature, 2010).

Columns and labels:
Plasmodium falciparum [1] = test: ST_JUDE: Plasmodium falciparum 3D7 EC50 (uM) as measured by SYBR green dye; type: functional, organism-based
Plasmodium falciparum [2] = test: ST_JUDE: Plasmodium falciparum K1 EC50 (uM) as measured by SYBR green dye; type: functional, organism-based

Row | Compound | EC50 (Plasmodium falciparum [1]) [µM] | EC50 (Plasmodium falciparum [2]) [µM]
1 | O=C(Nc1ccc2oc(-c3ccc(F)cc3Cl)nc2c1)C(Cl)(Cl)Cl | > 15 | > 15
2 | Cc1ccc(-c2nc(-c3ccc(Cl)cc3)no2)cc1 | > 15 | > 15
3 | CSc1cccc(NC(=O)C2c3ccccc3C(=O)N(C3CCCC3)C2c2cccs2)c1 (stereo not drawn) | 0.578 | 0.949
4 | O=C(Nc1ccc(F)c(F)c1)c1ccc(=O)n(Cc2cccc([N+](=O)[O-])c2)c1 | > 15 | > 15
5 | COc1cc2c(cc1OC)C(COc1cccc(C(F)(F)F)c1)N(C(=O)C(C)(C)C)CC2 (stereo not drawn) | 6.77 | 8.91
6 | CCOC(=O)C1=C(C)N=c2s/c(=C\c3cc(Cl)ccc3O)c(=O)n2C1c1ccc(Cl)cc1 (stereo not drawn) | > 15 | > 15
7 | CSc1ccc(C2CC(=O)NC3=C2C(=O)CC(c2ccccc2Cl)C3)cc1 (stereo not drawn) | 2.21 | 1.17
8 | CSc1nc(SC)c2c3c(sc2n1)CN(C)CC3 | 4.16 | 4.75
9 | CCOC(=O)c1ccccc1NC(=S)N1CCCN(Cc2ccc(NC(C)=O)cc2)CC1 | 1.66 | 2.5
10 | O=C(CN(Cc1ccc(Cl)cc1)S(=O)(=O)c1ccccc1)N1CCN(c2ccccc2F)CC1 | 2.91 | 2.13
11 | CCOC(=O)c1ccc(Nc2nc3nonc3nc2NCc2ccco2)cc1 | > 15 | > 15
12 | O=C1C(NC2CCCCC2)=C(N2CCCCC2)C(=O)c2ccccc21 | 0.0191 | 0.0247
13 | COc1ccc(C(=O)Nc2cccc(-c3nc4ccccc4s3)c2)cc1[N+](=O)[O-] | > 15 | > 15
14 | C[n+]1ccc(C=Cc2ccc(O)cc2)cc1 | 3.97 | 4.01
15 | CCOc1cc(C2C3=C(O)CC(c4ccc(OC)cc4)CC3=NC(C)=C2C(=O)OC)ccc1O (stereo not drawn) | > 15 | 5.36
16 | O=C(Nc1ccccc1Cl)c1cc2ccccc2cc1O | > 15 | 0.547
17 | COc1ccc(-c2nn(C)c3sc(C(=O)Nc4cccc(C(F)(F)F)c4)cc23)cc1OC | > 15 | > 15
18 | O=S(=O)(NCC(c1cccnc1)N1CCN(c2ccc(F)cc2)CC1)c1ccc(Cl)cc1 (stereo not drawn) | > 15 | > 15
19 | COc1ccc(CCN2COc3c(cc4c(C)c(C)c(=O)oc4c3C)C2)cc1 | 6.95 | 0.802
20 | CN(C)CCN(C)C(=O)c1cccc(OC2CCN(Cc3ccccc3O)CC2)c1 | 4.8 | 5.14
21 | Cc1ccc(Cl)cc1NC(=O)c1c(-c2c(Cl)cccc2Cl)noc1C | 0.481 | 8.12
22 | CC(C)OC(=O)c1cc(NC(=S)Nc2ccc([N+](=O)[O-])cc2)cc(C(=O)OC(C)C)c1 | > 15 | 1.55
23 | COCCCn1c(=N)c(C(=O)NCc2cccnc2)cc2c(=O)n3cccc(C)c3nc21 | > 15 | > 15

Row | Compound | EC50 (Plasmodium falciparum [1]) [µM] | EC50 (Plasmodium falciparum [2]) [µM]
24 | Cc1c(N)cc[n+](CC(=O)c2ccccc2)c1C | > 15 | 5.97
25 | Oc1c(C(c2ccc(Cl)cc2)N2CCOCC2)ccc2cccnc12 (stereo not drawn) | 2.19 | 2.97
26 | Cc1nc2ccc(/N=C/c3ccc(N(C)C)cc3)cc2s1 | > 15 | > 15
27 | CCOc1ccc(-c2nc(NC(=O)c3cccc(S(C)(=O)=O)c3)sc2C)cc1 | > 15 | > 15
28 | CCOC(=O)c1ccc2nc(C)cc(Nc3ccc(C)cc3C)c2c1 | > 15 | > 15
29 | Oc1c(CN2CCN(Cc3ccc4cccnc4c3O)CC2)ccc2cccnc12 | > 15 | 6.32
30 | CCCN(CCC)CCCNC(=S)Nc1ccc2nc(N3CCN(C)CC3)cc(C)c2c1 | 3.4 | 5.25
31 | CCOC(=O)c1cnc2c(C)cccc2c1NCCCN1CCOCC1 | 0.647 | 1.43
32 | CCOc1cc(C2C3=C(O)CC(c4ccc(Cl)cc4)CC3=NC(C)=C2C(=O)OC(C)C)ccc1O (stereo not drawn) | 1.54 | 1.62
33 | CO/C(O)=C1\C(C)=NC2=C(C(=O)CC(c3ccccc3OC)C2)C1c1cccs1 (stereo not drawn) | 3.91 | 1.72
34 | O=C(NCCN1CCC(Cc2ccccc2)CC1)c1cc(-c2cccnc2)nc2ccccc12 | 1.13 | 0.942
35 | O=C(CN1CCN(C2CCCC2)CC1)Nc1ccc([N+](=O)[O-])cc1C(=O)Nc1ccccc1F | > 15 | > 15
36 | COc1ccc(Cn2c(SCc3ccccc3F)nc3nccnc3c2=O)cc1 | 0.344 | 11.7
37 | CCCCCCn1c(N)c(C(=O)OC)c2nc3ccccc3nc21 | > 15 | > 15
38 | OC(CN1CCN(C/C=C/c2ccccc2)CC1)Cn1c2ccccc2c2ccccc21 (stereo not drawn) | 1.4 | 0.65
39 | Cc1cccc(NC(=O)CSc2nc3c4ccccc4nc-3c(O)n2-c2ccc([N+](=O)[O-])cc2)c1 | > 15 | 4.68
40 | O=C1CC(c2ccc(O)cc2)C2=C(CC(c3ccccc3Cl)CC2=O)N1 (stereo not drawn) | 2.43 | 1.41
41 | CCCCC(=O)NC(c1cccs1)c1cc(Cl)c2cccnc2c1O (stereo not drawn) | > 15 | > 15
42 | CCCCCCOC(=O)c1[nH]c2c(c1C)C(=O)CC(c1ccco1)C2 (stereo not drawn) | 2.52 | 2.03
43 | CC(=O)c1ccc(NC(=O)C2c3ccccc3C(=O)N(CC(C)C)C2c2cccs2)cc1 (stereo not drawn) | 0.571 | 0.682
44 | CCOC(=O)c1cnc2c(C)c(C)ccc2c1Nc1cc([N+](=O)[O-])ccc1O | > 15 | > 15
45 | CCN1CCN(CCCNC(=O)c2ccc3c(c2)sc2nc(-c4ccc(OC)cc4)cn23)CC1 | 0.577 | 1.56
46 | O=C(Nc1cccc(F)c1)c1cc2ccccc2oc1=O | > 15 | > 15

Row | Compound | EC50 (Plasmodium falciparum [1]) [µM] | EC50 (Plasmodium falciparum [2]) [µM]
47 | O=C(NCC1Cc2cccc(-c3ccncc3)c2O1)c1csc2c1CCCC2 (stereo not drawn) | 8.74 | > 15
48 | O=C(N/N=C/c1cc(Br)cc([N+](=O)[O-])c1O)NC12CC3CC(CC(C3)C1)C2 | > 15 | 0.959
49 | Oc1cccc2ccc(/C=C/c3ccccc3Br)nc12 | > 15 | 9.71
50 | CCN(CC)CCN1C(=O)c2oc3ccccc3c(=O)c2C1c1cccc(Cl)c1 (stereo not drawn) | 0.984 | 1.08
51 | CCOc1ccccc1CN1CCN(Cc2cc(Br)ccc2O)CC1 | 2.48 | 1.29
52 | CCOc1ccc2c(c1)CN(Cc1ccc(Cl)cc1)CO2 | 1.49 | 0.284
53 | Cc1ccc(C)c(C(C)NC(=S)Nc2ccc([N+](=O)[O-])cc2)c1 (stereo not drawn) | > 15 | 3.36
54 | CCOc1cc(/C=C/c2ccc3cccc(O)c3n2)ccc1O | > 15 | > 15
55 | COc1ccc2c(c1)CN(Cc1ccc(F)cc1)CO2 | 2.13 | 0.372
56 | CCc1ccc(C2c3c(-c4ccccc4O)n[nH]c3C(=O)N2CCCOC(C)C)cc1 (stereo not drawn) | > 15 | > 15
57 | CCCC(=O)n1nc(-c2ccc(Cl)cc2)nc1NCc1ccc(OC)cc1 | > 15 | > 15
58 | C=CCn1c(C)c(C=C2C(=O)NC(=S)NC2=O)c2ccccc21 | 1.69 | 1.4
59 | O=C(N/N=c1/oc2ccc(Br)cc2cc1-c1nc2ccccc2[nH]1)c1ccncc1 | 4.71 | > 15
60 | CN(C)c1ccc(/C=C/c2cc(/C=C/c3ccc(N(C)C)cc3)n3n[n+](C)nc3n2)cc1.[O-][Cl+3]([O-])([O-])[O-] | 0.641 | 0.514
61 | Cc1ccc(-c2nc(C(=O)N(C)Cc3cccnc3)cs2)cc1F | 4.36 | 5.12
62 | Cc1ccc(S(=O)(=O)Nc2cc(Sc3nc[nH]n3)c(O)c3ccccc23)c(C)c1 | 3.67 | 5.53
63 | COc1ccc(CCNC(=S)Nc2ccccc2Cl)cc1 | 4.88 | 4.8
64 | COc1cc(C(=O)NCC(C)Oc2cccc(CN(C)Cc3cscn3)c2)cc(OC)c1OC (stereo not drawn) | > 15 | > 15
65 | CC(C)COc1ccc(COC2C(C3COC(C)(C)O3)OC3OC(C)(C)OC32)cc1 (stereo not drawn) | 7.79 | > 15
66 | C=CCN1C(=O)c2[nH]nc(-c3c(C)cc(C)cc3O)c2C1c1ccc(OCC)cc1 (stereo not drawn) | 2.74 | 1.72
67 | COC(=O)c1ccc(NC(=O)CN(Cc2ccc(Cl)cc2)S(=O)(=O)c2ccccc2)cc1 | 7.32 | 5.1
68 | Cc1ccc2ccc(C(Nc3ccccn3)c3cccc(Cl)c3)c(O)c2n1 (stereo not drawn) | 4.13 | 3.66
69 | CC(=O)NC(c1cccs1)c1cc(Cl)c2cccnc2c1O (stereo not drawn) | > 15 | 5.89
